According to patent US20250003959A1, “CELL ANALYSIS METHODS, COMPOSITIONS, AND USES” (Institute for Systems Biology, priority 2021, published 2025):

What was measured:
[1] = system: U87VIII single cells; experiment: Single-cell barcode chip (SCBC) FA-N3 uptake measurement; type: cell-based, human
Method: For SCBC measurements, the as-prepared single cells were resuspended in warm FBS-free media supplemented with 10 mM FA-N3 at 2 M cells/mL. After being incubated at 37° C. for 30 min and washed with FBS-free media 3 times, the collected cell pellet was resuspended in serum-free, biotin-free media. The concentration of the as-prepared single-cell suspension was 2 M cells/mL.
The SCBCs were fabricated according to well-established procedures (Xue et al (2015) J Am Chem Soc 137 (12): 4066-4069). DNA-encoded antibody library (DEAL) was grafted onto the surface through DNA hybridization to enable capture antibody arrays. The FA surface probe was also incorporated onto the surface barcode through the same procedure.
The SCBC devices were operated following previously established protocols (Xue et al (2015) J Am Chem Soc 137 (12): 4066-4069)). Briefly, FA-N3 detection was achieved by a surface-based competitive FRET assay, and protein detection was carried out by a sandwich immunofluorescence assay. The cells were loaded in the SCBC with FA-N3 first. Then each cell was isolated and lysed on each chamber. Upon cell lysing, FA-N3 and other analytes were released from the cell and captured on the surface. Subsequently, the detection cocktail containing BHQ2-N3 and antibodies were added to the chamber, and the fluorescence readout was recorded.
The dendrimer-ssDNA conjugate can be mixed with a cocktail of antibody-ssDNA conjugates to enable multiplex quantitation. As a proof of concept, we quantified the azidopentanoic acid uptake, critical signaling protein levels, and cell proliferation marker (Ki67) in U87VIII single cells. […] We further investigated if the FA-N3 uptake was dictated by the cell volume.

[2] = system: U87VIII cells
Method: (§1) A 96-well plate was seeded with U87 cells (10,000/well), and the cells were allowed to grow overnight. Then the FA-N3 solution was added (100 μL per well, various concentrations) to the cells and incubated for 24 hours. After the incubation, the cell media was removed, and a resazurin solution (10 g/mL, in cell media) was added to the plate and incubated for 2 hours. The fluorescence was read by a plate reader (Biotek, 540 nm excitation/590 nm emission).

[3] = system: U87VIII cells; experiment: FA-N3 tolerance experiment (resazurin viability); settings: FIG. 3E
Method: as §1

[4] = system: U87VIII cells; experiment: FA-N3 uptake experiment at the bulk level, dendrimer/BHQ2-N3 surface detection; type: cell-based, human
Method: The 3rd or 4th generation dendrimer was immobilized on the glass slide surface (described above). To generate a working curve of FA-N3, 45 μL of FA-N3 (various concentrations in 1×PBST) was added to each well. The slide was incubated at 37° C. for 2 hours, allowing FA-N3 to react with the DBCO groups on the dendrimer. The FA-N3 solution was then removed, and each well was washed with 1×PBST three times. 45 μL of BHQ2-N3 solution (25 μM in 1×PBST) was added to each well, and the slide/PDMS device was incubated at 37° C. for 1 hour, allowing BHQ2-N3 to react with unoccupied DBCO sites. After removing the BHQ2-N3 solution, and the device was washed with 1×PBST three times. The PDMS slab was then removed, and the slide was washed with 1×PBS, 50% 1×PBS/water, and water. The slide was then air-dried, and the fluorescence intensities were obtained using a Genepix microarray scanner. Experiments were run in quadruplets to get the error bar.
The U87 cells were collected via centrifugation at 500 g for 5 min. The media was removed, and the cells were resuspended in FBS-free DMEM, resulting in a 4 M cells/mL suspension. 250 μL of the cell suspension was dispensed into Eppendorf tubes, and mixed with 250 μL of the FA-N3 solution (various concentrations, in FBS free DMEM). After 30 min incubation in the cell incubator, the cells were centrifuged at 500 g for 5 min and the resulting pellet was washed 3 times to remove any excess FA-N3. Then, 100 μL cell lysis buffer was added to each tube, and kept on ice for 15 min. The tubes were then sonicated and vortexed for 5 min. Finally, the tubes were centrifuged at maximum speed for 10 min. The supernatant was collected and subjected to surface-based FA-N3 detection.
Because of their hydrophobic tails, fatty acids may insert into the cell membrane. This partition is not an active transportation process and may confound the analysis. On the other hand, it was expected that the inserted probe molecules would remain in the membrane fragments upon cell lysis and not be detected by the assay. To assess this potential interference, we incubated the cells with the FA-N3 probe at 4° C. and used our platform to quantify the FA-N3 in the cells. At such a low temperature, the cells would stop the active transportation of the probe, and any observed signal would originate from the nonspecific insertion into the cell membrane. […] To rule out the possibility that the low-temperature treatment dampened the rate of the nonspecific insertion, we performed another experiment where we fixed the cells and then incubated them with the FA-N3 probe at 37° C. Again, the resulted signal was negligible (FIG. 3G).

azidopentanoic acid [FA-N3]
intracellular FA-N3 concentration [1]: high μM to low mM | fatty acid concentrations in the chambers ([1]; calculated from the standard curve): high nM to low μM | FA-N3 amount taken up by each cell ([1]; chamber volume 2 nL): low fmol-level | tolerance of the probe by the cells [2]: well-tolerated | concentration well tolerated by cells [3]: up to 20 mM | uptake signal after incubation at 4° C. ([4]; U87VIII cells incubated with the probe at 4° C., vs control): indistinguishable from the control | FA-N3 concentration above which uptake signal leveled off ([4]; U87VIII cells, bulk level): above 10 mM | cellular uptake of FA-N3 probe ([4]; U87VIII cells, bulk level, 30 min incubation, varying FA-N3 concentrations): concentration-dependent manner | uptake signal in fixed cells ([4]; fixed U87VIII cells incubated with the probe at 37° C.): negligible
